# Starred links: 1 amine or outer side, 2 acyl side, 3 side chain; linkers in the order of their positions; H or OH if unused. Non-standard residues stand in square brackets, D forms with d. Residues, ends and D or L forms follow the SMILES beside them. Groups on a side chain read outwards from the residue. *: point of attachment. C18 diacid = O=C(O)CCCCCCCCCCCCCCCCC(=O)*; γGlu = O=C(O)[C@H](CCC(=O)[*:2])N[*:1]; NMeY = CN[C@@H](Cc1ccc(O)cc1)C(=O)O; AEEA = NCCOCCOCC(=O)O; Aib = CC(C)(N)C(=O)O
# Assay: physchem
# Procedure: Solubility of the GIPR peptides may be determined by dissolution in a phosphate buffer followed by quantitation using liquid chromatography, for example, High Performance Liquid Chromatogry (HPLC). An illustrative method is provided. For determination of the solubility of the GIPr agonist peptides, 3 mg of peptides are weighted out in a small glass vial. 100 μL of 200 mM Phosphate buffer pH 7.4 are added and the vial is sonicated/votexed as necessary for a maximum of 1 min. […] If insoluble material is observed in the tube the addition of 100 μL of buffer and mixing is repeated until complete dissolution.
# 3 mg of peptides are weighted out in a small glass vial. 100 uL of 200 mM Phosphate buffer pH 7.4 are added and the vial is sonicated/votexed as necessary for a maximum of 1 min. […] If insoluble material is observed in the tube the addition of 100 uL of buffer and mixing is repeated until complete dissolution.
# [1] = pH 7.4, aqueous buffer, pH 7.4 Phosphate Buffer - Solubility, 200 mM Phosphate buffer pH 7.4
# [2] = pH 7.4, solubility in phosphate buffer at pH 7.4, 200 mM phosphate buffer pH 7.4
Structure (SMILES),"solubility (pH 7.4, aqueous buffer)",solubility (pH 7.4),solubility [1],solubility [2]
CC[C@H](C)[C@H](NC(=O)[C@H](CO)NC(=O)[C@H](Cc1ccc(O)cc1)NC(=O)[C@H](CC(=O)O)NC(=O)[C@H](CO)NC(=O)[C@@H](NC(=O)[C@H](Cc1ccccc1)NC(=O)[C@@H](NC(=O)CNC(=O)[C@H](CCC(=O)O)NC(=O)C(C)(C)NC(=O)[C@H](Cc1ccc(O)cc1)NC)[C@@H](C)O)[C@@H](C)CC)C(=O)N[C@@H](C)C(=O)N[C@@H](CC(C)C)C(=O)N[C@@H](CC(=O)O)C(=O)N[C@@H](CCCNC(=N)N)C(=O)N[C@H](C(=O)N[C@@H](Cc1c[nH]cn1)C(=O)N[C@@H](CCC(N)=O)C(=O)N[C@@H](CCCCNC(=O)COCCOCCNC(=O)COCCOCCNC(=O)CC[C@H](NC(=O)CCCCCCCCCCCCCCCCC(=O)O)C(=O)O)C(=O)N[C@@H](CC(N)=O)C(=O)N[C@@H](Cc1ccccc1)C(=O)N[C@H](C(=O)N[C@@H](CC(N)=O)C(=O)N[C@@H](Cc1c[nH]c2ccccc12)C(=O)N[C@@H](CC(C)C)C(=O)N[C@@H](CC(C)C)C(=O)N[C@@H](C)C(=O)N[C@@H](CCC(N)=O)C(=O)N[C@@H](CCCCN)C(=O)O)C(C)C)[C@@H](C)CC [Compound 247] (H-[NMeY][Aib]EGTFISDYSIALDRIHQK([AEEA-AEEA-γGlu-C18 diacid])NFVNWLLAQK-OH; C-terminus assumed),≥ 9.9 mg/mL,,,
CC[C@H](C)[C@H](NC(=O)[C@H](Cc1ccccc1)NC(=O)[C@@H](NC(=O)CNC(=O)[C@H](CCC(=O)O)NC(=O)C(C)(C)NC(=O)[C@H](Cc1ccc(O)cc1)NC)[C@@H](C)O)C(=O)N[C@@H](CO)C(=O)N[C@@H](CC(=O)O)C(=O)N[C@@H](Cc1ccc(O)cc1)C(=O)N[C@@H](CO)C(=O)N[C@H](C(=O)NC(C)(C)C(=O)N[C@@H](CC(C)C)C(=O)N[C@@H](CC(=O)O)C(=O)N[C@@H](CCCNC(=N)N)C(=O)NC(C)(C)C(=O)N[C@@H](C)C(=O)N[C@@H](CCC(N)=O)C(=O)NC(C)(C)C(=O)N[C@@H](CCCCNC(=O)COCCOCCNC(=O)COCCOCCNC(=O)CC[C@H](NC(=O)CC[C@H](NC(=O)CCCCCCCCCCCCCCCCC(=O)O)C(=O)O)C(=O)O)C(=O)N[C@@H](Cc1ccccc1)C(=O)N[C@H](C(=O)N[C@@H](CC(N)=O)C(=O)N[C@@H](Cc1c[nH]c2ccccc12)C(=O)N[C@@H](CC(C)C)C(=O)N[C@@H](CC(C)C)C(=O)N[C@@H](C)C(=O)N[C@@H](CCC(N)=O)C(=O)N[C@@H](CO)C(=O)N1CCC[C@H]1C(=O)NCC(=O)O)C(C)C)[C@@H](C)CC [Compound 85] (H-[NMeY][Aib]EGTFISDYSI[Aib]LDR[Aib]AQ[Aib]K([AEEA-AEEA-γGlu-γGlu-C18 diacid])FVNWLLAQSPG-OH),≥ 30 mg/mL,≥ 15 mg/mL,,
CC[C@H](C)[C@H](NC(=O)[C@H](Cc1ccccc1)NC(=O)[C@@H](NC(=O)CNC(=O)[C@H](CCC(=O)O)NC(=O)C(C)(C)NC(=O)[C@H](Cc1ccc(O)cc1)NC)[C@@H](C)O)C(=O)N[C@@H](CO)C(=O)N[C@@H](CC(=O)O)C(=O)N[C@@H](Cc1ccc(O)cc1)C(=O)N[C@@H](CO)C(=O)N[C@H](C(=O)NC(C)(C)C(=O)N[C@@H](CCCCNC(=O)CNC(=O)CNC(=O)CNC(=O)CNC(=O)CNC(=O)CC[C@H](NC(=O)CCCCCCCCCCCCCCCC(=O)O)C(=O)O)C(=O)N[C@@H](CC(=O)O)C(=O)N[C@@H](CCCNC(=N)N)C(=O)NC(C)(C)C(=O)N[C@@H](C)C(=O)N[C@@H](CCC(N)=O)C(=O)NC(C)(C)C(=O)N[C@@H](CC(N)=O)C(=O)N[C@@H](Cc1ccccc1)C(=O)N[C@H](C(=O)N[C@@H](CC(N)=O)C(=O)N[C@@H](Cc1c[nH]c2ccccc12)C(=O)N[C@@H](CC(C)C)C(=O)N[C@@H](CC(C)C)C(=O)N[C@@H](C)C(=O)N[C@@H](CCC(N)=O)C(=O)N[C@@H](CCCNC(=N)N)C(=O)N1CCC[C@H]1C(=O)N[C@@H](CO)C(=O)N[C@@H](CO)C(=O)NCC(=O)N[C@@H](C)C(=O)N1CCC[C@H]1C(=O)N1CCC[C@H]1C(=O)N1CCC[C@H]1C(=O)N[C@@H](CO)C(N)=O)C(C)C)[C@@H](C)CC [Compound 261],,,< 6 mg/mL,
CC[C@H](C)[C@H](NC(=O)[C@H](Cc1ccccc1)NC(=O)[C@@H](NC(=O)CNC(=O)[C@H](CCC(=O)O)NC(=O)C(C)(C)NC(=O)[C@H](Cc1ccc(O)cc1)NC)[C@@H](C)O)C(=O)N[C@@H](CO)C(=O)N[C@@H](CC(=O)O)C(=O)N[C@@H](Cc1ccc(O)cc1)C(=O)N[C@@H](CO)C(=O)N[C@H](C(=O)NC(C)(C)C(=O)N[C@@H](CC(C)C)C(=O)N[C@@H](CC(=O)O)C(=O)N[C@@H](CCCNC(=N)N)C(=O)NC(C)(C)C(=O)N[C@@H](CCCCNC(=O)COCCOCCNC(=O)COCCOCCNC(=O)CC[C@H](NC(=O)CC[C@H](NC(=O)CCCCCCCCCCCCCCCCC(=O)O)C(=O)O)C(=O)O)C(=O)N[C@@H](CCC(N)=O)C(=O)NC(C)(C)C(=O)N[C@@H](CC(=O)O)C(=O)N[C@@H](Cc1ccccc1)C(=O)N[C@H](C(=O)N[C@@H](CC(N)=O)C(=O)N[C@@H](Cc1c[nH]c2ccccc12)C(=O)N[C@@H](CC(C)C)C(=O)N[C@@H](CC(C)C)C(=O)N[C@@H](C)C(=O)N[C@@H](CCC(N)=O)C(=O)N[C@@H](CCCNC(=N)N)C(=O)NCC(=O)O)C(C)C)[C@@H](C)CC [Compound 73] (H-[NMeY][Aib]EGTFISDYSI[Aib]LDR[Aib]K([AEEA-AEEA-γGlu-γGlu-C18 diacid])Q[Aib]DFVNWLLAQRG-OH),≥ 30 mg/mL,≥ 15 mg/mL,,
CC[C@H](C)[C@H](NC(=O)[C@H](Cc1ccccc1)NC(=O)[C@@H](NC(=O)CNC(=O)[C@H](CCC(=O)O)NC(=O)C(C)(C)NC(=O)[C@H](Cc1ccc(O)cc1)NC)[C@@H](C)O)C(=O)N[C@@H](CO)C(=O)N[C@@H](CC(=O)O)C(=O)N[C@@H](Cc1ccc(O)cc1)C(=O)N[C@@H](CO)C(=O)N[C@H](C(=O)NC(C)(C)C(=O)N[C@@H](CC(C)C)C(=O)N[C@@H](CC(=O)O)C(=O)N[C@@H](CCCNC(=N)N)C(=O)NC(C)(C)C(=O)N[C@@H](C)C(=O)N[C@@H](C)C(=O)NC(C)(C)C(=O)N[C@@H](CCCCNC(=O)COCCOCCNC(=O)COCCOCCNC(=O)CC[C@H](NC(=O)CC[C@H](NC(=O)CCCCCCCCCCCCCCCCC(=O)O)C(=O)O)C(=O)O)C(=O)N[C@@H](Cc1ccccc1)C(=O)N[C@H](C(=O)N[C@@H](CC(N)=O)C(=O)N[C@@H](Cc1c[nH]c2ccccc12)C(=O)N[C@@H](CC(C)C)C(=O)N[C@@H](CC(C)C)C(=O)N[C@@H](C)C(=O)N[C@@H](CCC(N)=O)C(=O)N[C@@H](CO)C(=O)N1CCC[C@H]1C(=O)N[C@@H](CO)C(=O)N[C@@H](CO)C(=O)NCC(=O)N[C@@H](C)C(=O)N1CCC[C@H]1C(=O)N1CCC[C@H]1C(=O)N1CCC[C@H]1C(=O)N[C@@H](CO)C(N)=O)C(C)C)[C@@H](C)CC [Compound 107] (H-[NMeY][Aib]EGTFISDYSI[Aib]LDR[Aib]AA[Aib]K([AEEA-AEEA-γGlu-γGlu-C18 diacid])FVNWLLAQSPSSGAPPPS-NH2),,,≥ 60 mg/mL,≥ 15 mg/mL
CC[C@H](C)[C@H](NC(=O)[C@H](Cc1ccccc1)NC(=O)[C@@H](NC(=O)CNC(=O)[C@H](CCC(=O)O)NC(=O)C(C)(C)NC(=O)[C@H](Cc1ccc(O)cc1)NC)[C@@H](C)O)C(=O)N[C@@H](CO)C(=O)N[C@@H](CC(=O)O)C(=O)N[C@@H](Cc1ccc(O)cc1)C(=O)N[C@@H](CO)C(=O)N[C@H](C(=O)NC(C)(C)C(=O)N[C@@H](CC(C)C)C(=O)N[C@@H](CC(=O)O)C(=O)N[C@@H](CCCNC(=N)N)C(=O)N[C@@H](CCCCNC(=O)COCCOCCNC(=O)COCCOCCNC(=O)CC[C@H](NC(=O)CC[C@H](NC(=O)CCCCCCCCCCCCCCCCC(=O)O)C(=O)O)C(=O)O)C(=O)N[C@@H](C)C(=O)N[C@@H](CCC(N)=O)C(=O)NC(C)(C)C(=O)N[C@@H](CC(N)=O)C(=O)N[C@@H](Cc1ccccc1)C(=O)N[C@H](C(=O)N[C@@H](CC(N)=O)C(=O)N[C@@H](Cc1c[nH]c2ccccc12)C(=O)N[C@@H](CC(C)C)C(=O)N[C@@H](CC(C)C)C(=O)N[C@@H](C)C(=O)N[C@@H](CCC(N)=O)C(=O)N[C@@H](CCCNC(=N)N)C(=O)N1CCC[C@H]1C(=O)N[C@@H](CO)C(=O)N[C@@H](CO)C(=O)NCC(=O)N[C@@H](C)C(=O)N1CCC[C@H]1C(=O)N1CCC[C@H]1C(=O)N1CCC[C@H]1C(=O)N[C@@H](CO)C(N)=O)C(C)C)[C@@H](C)CC [Compound 26] (H-[NMeY][Aib]EGTFISDYSI[Aib]LDRK([AEEA-AEEA-γGlu-γGlu-C18 diacid])AQ[Aib]NFVNWLLAQRPSSGAPPPS-NH2),,,≥ 30 mg/mL,≥ 15 mg/mL
CC[C@H](C)[C@H](NC(=O)[C@H](CO)NC(=O)[C@H](Cc1ccc(O)cc1)NC(=O)[C@H](CC(=O)O)NC(=O)[C@H](CO)NC(=O)[C@@H](NC(=O)[C@H](Cc1ccccc1)NC(=O)[C@@H](NC(=O)CNC(=O)[C@H](CCC(=O)O)NC(=O)C(C)(C)NC(=O)[C@@H](N)Cc1ccc(O)cc1)[C@@H](C)O)[C@@H](C)CC)C(=O)N[C@@H](C)C(=O)N[C@@H](CCCCNC(=O)CNC(=O)CNC(=O)CNC(=O)CNC(=O)CNC(=O)CCCCCCCCCCCCCCCCC(=O)O)C(=O)N[C@@H](CC(=O)O)C(=O)N[C@@H](CCCNC(=N)N)C(=O)N[C@@H](C)C(=O)N[C@@H](C)C(=O)N[C@@H](CCC(N)=O)C(=O)NC(C)(C)C(=O)N[C@@H](CC(=O)O)C(=O)N[C@@H](Cc1ccccc1)C(=O)N[C@H](C(=O)N[C@@H](CCC(=O)O)C(=O)N[C@@H](Cc1c[nH]c2ccccc12)C(=O)N[C@@H](CC(C)C)C(=O)N[C@@H](CC(C)C)C(=O)N[C@@H](C)C(=O)N[C@@H](CCC(N)=O)C(=O)N[C@@H](CCCNC(=N)N)C(=O)NCC(=O)O)C(C)C [Compound 291],< 6 mg/mL,,,
